According to patent publication US10870652B2, “Compounds and methods for modulating bruton's tyrosine kinase” (CORVUS PHARMACEUTICALS, INC., priority 2016, dated 2020):

Columns and labels:
Assay type in all cases: biochemical
ITK = molecular target: T1, ITK (Homo sapiens, UniProt Q08881); assay: ITK IC50 kinase inhibition assay
T1 sequence (Q08881 1-620): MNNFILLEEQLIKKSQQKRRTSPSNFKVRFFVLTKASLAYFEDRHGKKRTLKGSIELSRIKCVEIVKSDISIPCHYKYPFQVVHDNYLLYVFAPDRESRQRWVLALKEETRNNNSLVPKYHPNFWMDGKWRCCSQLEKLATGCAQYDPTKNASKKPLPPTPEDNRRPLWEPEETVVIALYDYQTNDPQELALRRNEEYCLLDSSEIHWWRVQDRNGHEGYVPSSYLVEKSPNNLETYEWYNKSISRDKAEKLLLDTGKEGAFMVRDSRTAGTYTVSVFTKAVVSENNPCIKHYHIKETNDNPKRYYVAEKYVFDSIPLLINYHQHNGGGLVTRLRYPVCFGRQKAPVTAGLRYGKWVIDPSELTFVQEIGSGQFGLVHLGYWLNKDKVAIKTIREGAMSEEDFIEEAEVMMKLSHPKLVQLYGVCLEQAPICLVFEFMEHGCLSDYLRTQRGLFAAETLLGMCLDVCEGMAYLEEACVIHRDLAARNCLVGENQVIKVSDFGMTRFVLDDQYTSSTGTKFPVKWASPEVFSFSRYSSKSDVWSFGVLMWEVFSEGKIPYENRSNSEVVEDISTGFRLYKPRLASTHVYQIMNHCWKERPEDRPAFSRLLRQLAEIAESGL

BTK = BTK (Homo sapiens, UniProt Q06187); assay: BTK IC50 kinase inhibition assay
Chain of BTK (Q06187 whole entry): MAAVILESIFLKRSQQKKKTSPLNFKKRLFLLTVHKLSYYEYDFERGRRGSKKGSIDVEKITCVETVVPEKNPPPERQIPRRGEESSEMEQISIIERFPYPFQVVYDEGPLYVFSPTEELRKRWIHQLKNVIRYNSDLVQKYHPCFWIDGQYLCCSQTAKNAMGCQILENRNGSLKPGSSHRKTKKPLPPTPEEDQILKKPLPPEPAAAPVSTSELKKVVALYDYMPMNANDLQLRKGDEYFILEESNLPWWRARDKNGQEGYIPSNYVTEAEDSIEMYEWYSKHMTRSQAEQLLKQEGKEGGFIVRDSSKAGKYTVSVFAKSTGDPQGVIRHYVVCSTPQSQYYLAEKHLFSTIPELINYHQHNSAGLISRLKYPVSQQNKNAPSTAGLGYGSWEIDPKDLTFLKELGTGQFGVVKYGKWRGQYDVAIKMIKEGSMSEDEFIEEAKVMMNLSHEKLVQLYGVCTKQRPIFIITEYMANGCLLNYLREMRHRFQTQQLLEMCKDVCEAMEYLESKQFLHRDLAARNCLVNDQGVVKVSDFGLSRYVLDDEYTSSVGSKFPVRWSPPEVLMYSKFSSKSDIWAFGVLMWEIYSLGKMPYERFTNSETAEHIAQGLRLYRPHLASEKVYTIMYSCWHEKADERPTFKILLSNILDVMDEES

JAK3 = molecular target: T2, JAK3 (Homo sapiens, UniProt P52333); assay: JAK3 IC50 kinase inhibition assay
T2 sequence (P52333 1-1124): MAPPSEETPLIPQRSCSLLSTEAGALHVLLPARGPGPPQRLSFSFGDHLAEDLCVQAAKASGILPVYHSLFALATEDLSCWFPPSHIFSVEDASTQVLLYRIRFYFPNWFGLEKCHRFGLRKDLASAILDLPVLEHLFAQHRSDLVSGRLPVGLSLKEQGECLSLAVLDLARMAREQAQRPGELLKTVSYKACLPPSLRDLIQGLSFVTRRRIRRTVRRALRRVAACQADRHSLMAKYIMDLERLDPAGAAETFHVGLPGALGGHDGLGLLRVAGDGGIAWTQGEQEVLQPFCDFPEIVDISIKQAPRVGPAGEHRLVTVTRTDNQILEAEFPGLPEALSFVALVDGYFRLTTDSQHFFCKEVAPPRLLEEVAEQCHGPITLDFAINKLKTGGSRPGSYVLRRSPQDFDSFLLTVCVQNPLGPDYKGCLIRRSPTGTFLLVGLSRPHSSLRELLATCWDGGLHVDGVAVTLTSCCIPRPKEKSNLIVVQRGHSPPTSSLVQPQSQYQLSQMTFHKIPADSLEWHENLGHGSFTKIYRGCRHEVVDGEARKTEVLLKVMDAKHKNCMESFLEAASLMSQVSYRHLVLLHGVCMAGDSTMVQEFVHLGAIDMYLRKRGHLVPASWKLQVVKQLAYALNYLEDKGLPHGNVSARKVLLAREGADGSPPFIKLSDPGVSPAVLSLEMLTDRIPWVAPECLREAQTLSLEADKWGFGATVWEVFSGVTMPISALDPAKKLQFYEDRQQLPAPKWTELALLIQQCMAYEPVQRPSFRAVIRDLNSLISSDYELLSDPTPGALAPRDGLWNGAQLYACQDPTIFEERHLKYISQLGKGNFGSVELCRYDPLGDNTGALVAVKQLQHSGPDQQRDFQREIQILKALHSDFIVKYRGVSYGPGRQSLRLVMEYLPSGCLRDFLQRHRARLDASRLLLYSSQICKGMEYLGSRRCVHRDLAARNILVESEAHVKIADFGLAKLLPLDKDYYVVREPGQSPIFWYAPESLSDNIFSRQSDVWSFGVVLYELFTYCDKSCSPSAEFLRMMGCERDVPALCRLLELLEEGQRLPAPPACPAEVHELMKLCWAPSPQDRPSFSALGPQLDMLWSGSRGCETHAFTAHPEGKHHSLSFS

TXK = molecular target: T3, TXK (Homo sapiens, UniProt P42681); assay: TXK IC50 kinase inhibition assay
T3 sequence (P42681 1-527): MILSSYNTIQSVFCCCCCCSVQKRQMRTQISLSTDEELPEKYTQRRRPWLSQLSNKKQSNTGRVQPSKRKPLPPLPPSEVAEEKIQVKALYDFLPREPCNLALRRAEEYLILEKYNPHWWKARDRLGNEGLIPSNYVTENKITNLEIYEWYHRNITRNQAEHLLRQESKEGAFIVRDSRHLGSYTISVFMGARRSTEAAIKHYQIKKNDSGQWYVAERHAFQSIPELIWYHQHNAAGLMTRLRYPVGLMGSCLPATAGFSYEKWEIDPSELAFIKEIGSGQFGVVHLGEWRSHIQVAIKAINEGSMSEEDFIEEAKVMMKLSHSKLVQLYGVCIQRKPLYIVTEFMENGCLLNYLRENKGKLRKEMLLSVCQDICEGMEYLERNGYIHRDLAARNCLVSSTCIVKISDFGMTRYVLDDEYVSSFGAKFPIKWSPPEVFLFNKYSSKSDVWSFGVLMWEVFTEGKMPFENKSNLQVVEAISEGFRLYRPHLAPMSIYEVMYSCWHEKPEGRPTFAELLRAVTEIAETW

SMILES | IC50 (ITK) | IC50 (BTK) | IC50 (JAK3) | IC50 (TXK)
C=CC(=O)N1CC[C@@H](n2nc(-c3ccc(Oc4ccccc4)cc3F)c3cncnc32)C1 [Compound A17, (R)-1-(3-(3-(2-fluoro-4-phenoxyphenyl)-1H-pyrazolo[3,4-d]pyrimidin-1-yl)pyrrolidin-1-yl)prop-2-en-1-one] | > 500 nM | < 100 nM | > 500 nM | < 100 nM
C=CC(=O)N1CCC[C@H]1c1nc(-c2ccc(Oc3ccccc3)cc2)c2cnccn12 [Compound A29, (S)-1-(2-(1-(4-phenoxyphenyl)imidazo[1,5-a]pyrazin-3-yl)pyrrolidin-1-yl)prop-2-en-1-one] | > 500 nM | < 100 nM | > 500 nM | 100 to 500 nM
C=CC(=O)N1CCC[C@@H](n2nc(-c3ccc(Oc4ccccc4)cc3)c3cnccc32)C1 [Compound A23, (R)-1-(3-(3-(4-phenoxyphenyl)-H-pyrazolo[4,3-c]pyridin-1-yl)piperidin-1-yl)prop-2-en-1-one] | > 500 nM | < 100 nM | > 500 nM | < 100 nM
C=CC(=O)N1CCC[C@H]1Cn1nc(-c2ccc(Oc3cccc(C)c3)cc2)c2cncnc21 [Compound A48, (S)-1-(2-((3-(4-(m-tolyloxy)phenyl)-1H-pyrazolo[3,4-d]pyrimidin-1-yl)methyl)pyrrolidin-1-yl)prop-2-en-1-one] | > 500 nM | < 100 nM | > 500 nM | < 100 nM
CC#CC(=O)Nc1ccccc1Cn1nc(-c2ccc(Oc3ccccc3)cc2)c2cncnc21 [Compound A61, N-(2-((3-(4-phenoxyphenyl)-1H-pyrazolo[3,4-d]pyrimidin-1-yl)methyl)phenyl)but-2-ynamide] | > 500 nM | > 500 nM | > 500 nM | < 100 nM
CN(C)C/C=C/C(=O)N1CC[C@@H](n2nc(-c3ccc(Oc4ccccc4)cc3)c3cncnc32)C1 [Compound A25] | > 500 nM | < 100 nM | > 500 nM | > 500 nM
O=C(C#CC1CC1)N1CC2(CC(n3nc(-c4ccc(Oc5ccccc5)cc4)c4cncnc43)C2)C1 [Compound A78, 3-Cyclopropyl-1-(6-(3-(4-phenoxyphenyl)-1H-pyrazolo[3,4-d]pyrimidin-1-yl)-2-azaspiro[3.3]heptan-2-yl)prop-2-yn-1-one] | > 500 nM | 100 to 500 nM | > 500 nM | > 500 nM
CN1CCN(CC#CC(=O)N2CC3(CC(n4nc(-c5ccc(Oc6ccccc6)cc5)c5cncnc54)C3)C2)CC1 [Compound A76, 4-(4-Methylpiperazin-1-yl)-1-(6-(3-(4-phenoxyphenyl)-1H-pyrazolo[3,4-d]pyrimidin-1-yl)-2-azaspiro[3.3]heptan-2-yl)but-2-yn-1-one] | > 500 nM | < 100 nM | > 500 nM | < 100 nM
C=CC(=O)N[C@H]1C[C@H](n2nc(-c3ccc(Oc4ccccc4)cc3)c3cncnc32)C1 [Compound A55, N-((1r,3r)-3-(3-(4-phenoxyphenyl)-1H-pyrazolo[3,4-d]pyrimidin-1-yl)cyclobutyl)acrylamide] | > 500 nM | 100 to 500 nM | > 500 nM | > 500 nM
CC#CC(=O)N1CC2(CC(n3nc(-c4ccc(Oc5ccccc5)cc4)c4cncnc43)C2)C1 [Compound A60, 1-(6-(3-(4-phenoxyphenyl)-1H-pyrazolo[3,4-d]pyrimidin-1-yl)-2-azaspiro[3.3]heptan-2-yl)but-2-yn-1-one] | > 500 nM | < 100 nM | > 500 nM | < 100 nM
C=CC(=O)N1CCC[C@H]1Cn1nc(-c2ccc(Oc3ccccc3)cc2F)c2cncnc21 [Compound A19, (S)-1-(2-((3-(2-fluoro-4-phenoxyphenyl)-1H-pyrazolo[3,4-d]pyrimidin-1-yl)methyl)pyrrolidin-1-yl)prop-2-en-1-one] | > 500 nM | < 100 nM | > 500 nM | < 100 nM
C=CC(=O)N1CCC[C@@H](n2nc(-c3ccc(Oc4ccccc4)cc3F)c3cncnc32)C1 [Compound A2, (R)-1-(3-(3-(2-fluoro-4-phenoxyphenyl)-1H-pyrazolo[3,4-d]pyrimidin-1-yl)piperidin-1-yl)prop-2-en-1-one] | > 500 nM | < 100 nM | 100 to 500 nM | < 100 nM
C=CC(=O)N1CC(F)(F)C[C@H]1Cn1nc(-c2ccc(Oc3ccccc3)cc2)c2cncnc21 [Compound A41, (S)-1-(4,4-difluoro-2-((3-(4-phenoxyphenyl)-1H-pyrazolo[3,4-d]pyrimidin-1-yl)methyl)pyrrolidin-1-yl)prop-2-en-1-one] | > 500 nM | < 100 nM | > 500 nM | < 100 nM
C=CC(=O)N1CCC(n2nc(-c3ccc(Oc4ccccc4)cc3)c3cncnc32)CC1 [Compound A36, 1-(4-(3-(4-phenoxyphenyl)-1H-pyrazolo[3,4-d]pyrimidin-1-yl)piperidin-1-yl)prop-2-en-1-one] | > 500 nM | 100 to 500 nM | > 500 nM | 100 to 500 nM
C=CC(=O)N[C@@H](C)Cn1nc(-c2ccc(Oc3ccccc3)cc2)c2cncnc21 [Compound A43, (S)—N-(1-(3-(4-phenoxyphenyl)-1H-pyrazolo[3,4-d]pyrimidin-1-yl)propan-2-yl)acrylamide] | > 500 nM | < 100 nM | > 500 nM | 100 to 500 nM
C=CC(=O)Nc1ccccc1Cn1nc(-c2ccc(Oc3ccccc3)cc2)c2cncnc21 [Compound A38, N-(2-((3-(4-phenoxyphenyl)-1H-pyrazolo[3,4-d]pyrimidin-1-yl)methyl)phenyl)acrylamide] | > 500 nM | < 100 nM | > 500 nM | < 100 nM
CC#CC(=O)N1CCC[C@@H](n2nc(-c3ccc(Oc4ccccc4)cc3)c3cncnc32)C1 [Compound A16, (R)-1-(3-(3-(4-phenoxyphenyl)-1H-pyrazolo[3,4-d]pyrimidin-1-yl)piperidin-1-yl)but-2-yn-1-one] | > 500 nM | > 500 nM | > 500 nM | > 500 nM
C=CC(=O)N1CCC[C@@]1(C)Cn1nc(-c2ccc(Oc3ccccc3)cc2)c2cncnc21 [Compound A45, (S)-1-(2-methyl-2-((3-(4-phenoxyphenyl)-1H-pyrazolo[3,4-d]pyrimidin-1-yl)methyl)pyrrolidin-1-yl)prop-2-en-1-one] | > 500 nM | < 100 nM | > 500 nM | < 100 nM
